From patent US20080261314A1, “FLUORESCENT PROBE FOR ZINC” (DAIICHI PURE CHEMICALS CO., LTD., priority 2001, published 2008)

Columns and labels:
Assay type in all cases: physicochemical
[1] = Ratio measurement of fluorescence intensities at two excitation wavelengths on addition of zinc ions; conditions: excitation 335 nm and 354 nm, fluorescence 530 nm; 20 μM compound, ZnSO4 up to 20 μM, HEPES pH 7.4
Experimental: (§1) To a 20 μM solution of Compound (11) in 100 mM HEPES buffer (pH 7.4), ZnSO4 was added up to 20 μM. Change of the ratio of fluorescence intensities at excitation wavelengths at 335 nm and 354 nm with the fluorescence wavelengths fixed at 530 nm are shown (FIG. 2 (A)). To a 20 μM solution of Compound (11) in 100 mM HEPES buffer (pH 7.4), sodium ions, calcium ions, potassium ions, or magnesium ions were added up to 400 μM. Changes of the ratio of fluorescence intensities at excitation wavelengths at 335 nm and 354 nm with the fluorescence wavelengths fixed at 530 nm are shown (FIG. 2 (B)).
(§2) Studies of fluorescence characteristics and the ratio measurements of Compound (14) and (15) were conducted in the same manners as those described in Example 2 and Example 3. Fluorescent characteristics of Compound (14) and (15) before and after addition of zinc ions (20 μM ZnSO4) are shown in the following Table 2.

[2] = Ratio measurement on addition of ions other than zinc ion (selectivity)
Experimental: as §1, §2

[3] = Spectrum measurement (UV, excitation and fluorescence spectra) on addition of ZnSO4
Experimental: To a 15 μM solution of Compound (14) in 100 mM HEPES buffer (pH 7.4), ZnSO4 was added up to 15 μM. Spectra of the solution were measured under the measurement condition described in Example 2. The same spectral measurement was also conducted for Compound (11) as a reference. In FIG. 3, a) UV spectrum change of Compound (14), b) excitation spectra of Compound (14) with fluorescence wavelengths fixed at 495 nm, c) UV spectrum change of Compound (11), and d) excitation spectra of Compound (11) with fluorescence wavelengths fixed at 530 nm are shown. Further, to a 10 μM solution of Compound (15) in 100 mM HEPES buffer (pH 7.4), ZnSO4 was added up to 200 μM. Spectra were measured under the condition described in Example 2.

[4] = Fluorescence characteristics (excitation and emission maxima) before and after addition of zinc ions
Experimental: Fluorescence characteristics of Compound (11) were studied. Compound (11) was dissolved in 100 mM HEPES buffer (pH 7.4, containing 0.4% DMSO as co-solvent) up to 20 μM and measured excitation spectra.
Hitachi F-4500 fluorescence measurement apparatus
Scanning rate: 240 nm/min
Photomultiplier voltage: 950 V
Measurement temperature: 25° C.
as §2

[5] = 20 μM compound, 20 μM ZnSO4, 100 mM HEPES buffer pH 7.4, 25° C.
[6] = 20 μM compound, 100 mM HEPES buffer pH 7.4, 0.4% DMSO, 25° C.

Change of absorbance at 335 nm on addition of zinc ions ([3]; 15 μM compound, ZnSO4 up to 15 μM, HEPES pH 7.4): increases
Change of absorbance at the long-wavelength maximum on addition of zinc ions ([3]; 365 nm for Compound (14), 354 nm for Compound (11), 15 μM compound, ZnSO4 up to 15 μM): decreases
Change of fluorescence excited at the long-wavelength maximum on addition of zinc ions ([3]; excited at 365 nm (Compound (14), emission 495 nm) or 354 nm (Compound (11), emission 530 nm)): decreases
Em(nm), after addition of Zn2+ [4, 5]: 528 nm
Ex(nm), after addition of Zn2+ [4, 5]: 335 nm
Em(nm), before addition of Zn2+ [4, 6]: 532 nm
Ex(nm), before addition of Zn2+ [4, 6]: 354 nm
Wavelength shift of the peak of the excitation spectrum on coordination to a zinc ion ([4]; blue shift, depending on concentration of zinc ions): about 20 nm
Compound: COc1cc2cc(-c3ccc(C(=O)O)cc3)oc2cc1NCCN(Cc1ccccn1)Cc1ccccn1 [Compound (11)]
Change of the ratio of fluorescence intensities on addition of zinc ions [1]: changed concentration dependent manner of zinc ions
Change of the ratio of fluorescence intensities on addition of sodium, calcium, potassium or magnesium ions ([2]; ions added up to 400 μM, 20 μM compound, 100 mM HEPES pH 7.4): no change of the ratio was observed
Selectivity to zinc ions ([2]; versus sodium, calcium, potassium, magnesium ions): high selectivity to zinc ions
